Legend:
CXCR3 = CXCR3 (Macaca fascicularis, UniProt A0A2K5UV19); test: functional cellular assay measuring calcium flux in CXCR3 transfected cells (block of CXCR3/IP-10 interaction); format: cell-based, Cyno; conditions: IP-10 induced intracellular calcium flux; Cyno-CHO cells stably expressing recombinant CXCR3 and G-alpha-16; IP-10 at EC80; read-out: IC50
Procedure, shortened: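 Cyno-CHO cells stably expressing CXCR3 and G-alpha-16, loaded with Ca-4 dye in HBSS/10 mM HEPES pH 7.4 with 2 mM probenecid for 1 h at 37° C. Compound (final 10 microM) preincubated 15 min at room temperature, then IP-10 at EC80 added; calcium flux read at 480/540 nm.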

[1] = system: LDL receptor knockout model; conditions: dosed prophylactically in a LDL receptor knockout model; cited from earlier work

Chain of CXCR3 (A0A2K5UV19 entry or part of it): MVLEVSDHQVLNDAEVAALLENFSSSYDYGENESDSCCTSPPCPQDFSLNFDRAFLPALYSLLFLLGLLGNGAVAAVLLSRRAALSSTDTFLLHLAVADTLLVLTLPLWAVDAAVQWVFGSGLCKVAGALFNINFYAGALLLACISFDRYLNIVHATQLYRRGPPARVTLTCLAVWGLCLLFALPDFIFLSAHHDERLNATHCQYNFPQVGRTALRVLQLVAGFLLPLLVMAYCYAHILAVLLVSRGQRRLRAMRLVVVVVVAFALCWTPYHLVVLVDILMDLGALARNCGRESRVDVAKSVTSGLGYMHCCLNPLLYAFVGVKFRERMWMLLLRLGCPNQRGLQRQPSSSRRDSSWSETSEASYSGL

Compound | IC50 (CXCR3) | atherosclerotic lesion formation [1]
C[C@@H]1CN(c2ccc(F)cc2C(=O)Nc2nc3c(s2)CN(C)CC3)CCN1C(=O)CN1CCCCC1=O [5-fluoro-2-{(3R)-3-methyl-4-[(2-oxopiperidin-1-yl)acetyl]piperazin-1-yl}-N-(5-methyl-4,5,6,7-tetrahydro[1,3]thiazolo[5,4-c]pyridin-2-yl)benzamide] | 20 nM | 
CC(C)C(=O)N(C)CC(=O)N1CCN(c2ccc(F)cc2C(=O)Nc2nc3c(s2)CN(C)CC3)C[C@H]1C [5-fluoro-2-{(3R)-3-methyl-4-[N-methyl-N-(2-methylpropanoyl)glycyl]piperazin-1-yl}-N-(5-methyl-4,5,6,7-tetrahydro[1,3]thiazolo[5,4-c]pyridin-2-yl)benzamide] | 19 nM | 
C[C@H]1CN(c2ccc(F)cc2C(=O)Nc2nc3c(s2)CN(C)CC3)CCN1C(=O)CN1Cc2ccccc2C1=O [5-fluoro-2-{(3S)-3-methyl-4-[(1-oxo-1,3-dihydro-2H-isoindol-2-yl)acetyl]piperazin-1-yl}-N-(5-methyl-4,5,6,7-tetrahydro[1,3]thiazolo[5,4-c]pyridin-2-yl)benzamide] | 15 nM | 
C[C@H]1CN(c2ccc(F)cc2C(=O)Nc2nc3c(s2)CN(C)CC3)CCN1C(=O)Cn1c(=O)[nH]c2ccccc21 [5-fluoro-2-{(3S)-3-methyl-4-[(2-oxo-2,3-dihydro-1H-benzimidazol-1-yl)acetyl]piperazin-1-yl}-N-(5-methyl-4,5,6,7-tetrahydro[1,3]thiazolo[5,4-c]pyridin-2-yl)benzamide] | 12 nM | 
C[C@H]1CN(c2ccc(F)cc2C(=O)Nc2nc3c(s2)CN(C)CC3)CCN1C(=O)CN1CCCCC1=O [5-fluoro-2-{(3S)-3-methyl-4-[(2-oxopiperidin-1-yl)acetyl]piperazin-1-yl}-N-(5-methyl-4,5,6,7-tetrahydro[1,3]thiazolo[5,4-c]pyridin-2-yl)benzamide] | 17 nM | 
CC(C)C(=O)N(C)CC(=O)N1CCN(c2ccc(F)cc2C(=O)Nc2nc3c(s2)CN(C)CC3)C[C@@H]1C [5-fluoro-2-{(3S)-3-methyl-4-[N-methyl-N-(2-methylpropanoyl)glycyl]piperazin-1-yl}-N-(5-methyl-4,5,6,7-tetrahydro[1,3]thiazolo[5,4-c]pyridin-2-yl)benzamide] | 14 nM | 
COc1cc(NC(=O)c2cc(F)ccc2N2CCN(C(=O)Cn3ccc4cccnc43)[C@H](C)C2)ccn1 [5-fluoro-N-(2-methoxypyridin-4-yl)-2-[(3R)-3-methyl-4-(1H-pyrrolo[2,3-b]pyridin-1-ylacetyl)piperazin-1-yl]benzamide] | 9 nM | 
COc1cc(NC(=O)c2cc(F)ccc2N2CCN(C(=O)Cn3ccc4ccncc43)[C@H](C)C2)ccn1 [5-fluoro-N-(2-methoxypyridin-4-yl)-2-[(3R)-3-methyl-4-(1H-pyrrolo[2,3-c]pyridin-1-ylacetyl)piperazin-1-yl]benzamide] | 9 nM | 
COc1cc(NC(=O)c2cc(F)ccc2N2CCN(C(=O)Cn3ccc4cccnc43)[C@@H](C)C2)ccn1 [5-fluoro-N-(2-methoxypyridin-4-yl)-2-[(3S)-3-methyl-4-(1H-pyrrolo[2,3-b]pyridin-1-ylacetyl)piperazin-1-yl]benzamide] | 18 nM | 
COc1cc(NC(=O)c2cc(F)ccc2N2CCN(C(=O)Cn3ccc4ccncc43)[C@@H](C)C2)ccn1 [5-fluoro-N-(2-methoxypyridin-4-yl)-2-[(3S)-3-methyl-4-(1H-pyrrolo[2,3-c]pyridin-1-ylacetyl)piperazin-1-yl]benzamide] | 6 nM | 
COc1cc(NC(=O)c2cc(F)ccc2N2CCN(C(=O)CN3Cc4ccccc4C3=O)[C@H](C)C2)ccn1 [5-fluoro-N-(2-methoxypyridin-4-yl)-2-{(3R)-3-methyl-4-[(1-oxo-1,3-dihydro-2H-isoindol-2-yl)acetyl]piperazin-1-yl}benzamide] | 7 nM | 
COc1cc(NC(=O)c2cc(F)ccc2N2CCN(C(=O)Cn3c(=O)[nH]c4ccccc43)[C@H](C)C2)ccn1 [5-fluoro-N-(2-methoxypyridin-4-yl)-2-{(3R)-3-methyl-4-[(2-oxo-2,3-dihydro-1H-benzimidazol-1-yl)acetyl]piperazin-1-yl}benzamide] | 8 nM | 
COc1cc(NC(=O)c2cc(F)ccc2N2CCN(C(=O)CN3CCCCC3=O)[C@H](C)C2)ccn1 [5-fluoro-N-(2-methoxypyridin-4-yl)-2-{(3R)-3-methyl-4-[(2-oxopiperidin-1-yl)acetyl]piperazin-1-yl}benzamide] | 10 nM | 
COc1cc(NC(=O)c2cc(F)ccc2N2CCN(C(=O)CN(C)C(=O)C(C)C)[C@H](C)C2)ccn1 [5-fluoro-N-(2-methoxypyridin-4-yl)-2-{(3R)-3-methyl-4-[N-methyl-N-(2-methylpropanoyl)glycyl]piperazin-1-yl}benzamide] | 9 nM | 
COc1cc(NC(=O)c2cc(F)ccc2N2CCN(C(=O)CN3Cc4ccccc4C3=O)[C@@H](C)C2)ccn1 [5-fluoro-N-(2-methoxypyridin-4-yl)-2-{(3S)-3-methyl-4-[(1-oxo-1,3-dihydro-2H-isoindol-2-yl)acetyl]piperazin-1-yl}benzamide] | 13 nM | 
COc1cc(NC(=O)c2cc(F)ccc2N2CCN(C(=O)Cn3c(=O)[nH]c4ccccc43)[C@@H](C)C2)ccn1 [5-fluoro-N-(2-methoxypyridin-4-yl)-2-{(3S)-3-methyl-4-[(2-oxo-2,3-dihydro-1H-benzimidazol-1-yl)acetyl]piperazin-1-yl}benzamide] | 9 nM | 
COc1cc(NC(=O)c2cc(F)ccc2N2CCN(C(=O)CN3CCCCC3=O)[C@@H](C)C2)ccn1 [5-fluoro-N-(2-methoxypyridin-4-yl)-2-{(3S)-3-methyl-4-[(2-oxopiperidin-1-yl)acetyl]piperazin-1-yl}benzamide] | 8 nM | 
COc1cc(NC(=O)c2cc(F)ccc2N2CCN(C(=O)CN(C)C(=O)C(C)C)[C@@H](C)C2)ccn1 [5-fluoro-N-(2-methoxypyridin-4-yl)-2-{(3S)-3-methyl-4-[N-methyl-N-(2-methylpropanoyl)glycyl]piperazin-1-yl}benzamide] | 11 nM | 
N#Cc1ccc(-c2ccccc2N2CCN(C(=O)Cn3ccc4cccnc43)CC2)cn1 [5-{2-[4-(2-Pyrrolo[2,3-b]pyridin-1-yl-acetyl)-piperazin-1-yl]-phenyl}-pyridine-2-carbonitrile] | 5 nM | 
N#Cc1ncc(-c2ccccc2N2CCN(C(=O)Cn3ccc4cccnc43)CC2)cn1 [5-{2-[4-(2-Pyrrolo[2,3-b]pyridin-1-yl-acetyl)-piperazin-1-yl]-phenyl}-pyrimidine-2-carbonitrile] | 13 nM | 
COc1cc(NC(=O)c2cc(F)ccc2N2CCN(C(=O)CN(C)C(=O)c3ncoc3C)[C@H](C)C2)ccn1 [N-{2-[(2R)-4-{4-fluoro-2-[(2-methoxypyridin-4-yl)carbamoyl]phenyl}-2-methylpiperazin-1-yl]-2-oxoethyl}-N,5-dimethyl-1,3-oxazole-4-carboxamide] | 12 nM | 
Cc1ocnc1C(=O)N(C)CC(=O)N1CCN(c2ccc(F)cc2C(=O)Nc2nc3c(s2)CN(C)CC3)C[C@H]1C [N-{2-[(2R)-4-{4-fluoro-2-[(5-methyl-4,5,6,7-tetrahydro[1,3]thiazolo[5,4-c]pyridin-2-yl)carbamoyl]phenyl}-2-methylpiperazin-1-yl]-2-oxoethyl}-N,5-dimethyl-1,3-oxazole-4-carboxamide] | 35 nM | 
COc1cc(NC(=O)c2cc(F)ccc2N2CCN(C(=O)CN(C)C(=O)c3ncoc3C)[C@@H](C)C2)ccn1 [N-{2-[(2S)-4-{4-fluoro-2-[(2-methoxypyridin-4-yl)carbamoyl]phenyl}-2-methylpiperazin-1-yl]-2-oxoethyl}-N,5-dimethyl-1,3-oxazole-4-carboxamide] | 11 nM | 
Cc1ocnc1C(=O)N(C)CC(=O)N1CCN(c2ccc(F)cc2C(=O)Nc2nc3c(s2)CN(C)CC3)C[C@@H]1C [N-{2-[(2S)-4-{4-fluoro-2-[(5-methyl-4,5,6,7-tetrahydro[1,3]thiazolo[5,4-c]pyridin-2-yl)carbamoyl]phenyl}-2-methylpiperazin-1-yl]-2-oxoethyl}-N,5-dimethyl-1,3-oxazole-4-carboxamide] | 21 nM | 
CCOc1ccc(-n2c(C(C)N(Cc3cccnc3)C(=O)Cc3ccc(F)c(C(F)(F)F)c3)nc3ncccc3c2=O)cc1 (stereo not shown) [NBI-74330] |  | significantly attenuated atherosclerotic lesion formation

From patent US8450317B2, “CXCR3 receptor antagonists” (Boehringer Ingelheim International GmbH, priority 2009, dated 2013)
